Structures are written as SMILES. Bounds are passed on as bounds.

Data set [1] is described as follows: Competitive inhibition of bovine pancreas trypsin assessed as release of para-nitroaniline using L-BAPA as substrate in presence of 4-nitrophenyl 4-guanidinobenzoate hydrochloride as inhibitor at pH 7.2 at 25 degC. On the set-up: species or system Bos taurus.
The species entered for another data set is Bos taurus. As to the kind of experiment: Competitive inhibition of bovine pancreas trypsin assessed as release of para-nitroaniline using L-BAPA as substrate at pH 7.2 in absence of inhibitor at 25 degC.
Data set [2] in a line: Stability of the compound assessed as bovine trypsin-mediated hydrolysis for 6 days by NMR spectroscopy. The data set is classed as ADME, Bos taurus. The settings on record: cattle, isolated protein, 144 h; time 6 day.
A short description of data set [3]: Competitive inhibition of bovine trypsin using Z-Arg-SBzl as substrate at pH 7.5 at 25 degC. Also on record: species or system Bos taurus.

For `N=C(N)Nc1ccc(C=O)cn1`, the inhibition constant (Ki) in data set [1] turned out to be 289 µM.

As for `N=C(N)Nc1ccccn1`, the V0 in the data set filed under Bos taurus was 8.09 10^-8M/s. Moreover, the Ki in data set [1] was 83.2 µM.

On to `Cc1ccc(NC(=N)N)nc1`, for which the Ki in data set [1] turned out to be 104 µM.

In the case of `N=C(N)Nc1ccc(-c2ccccc2)cn1`, the Ki in data set [1] came out at 955 µM.

For `COC(=O)c1ccc(NC(=N)N)nc1.O=C(O)C(F)(F)F`, the Stabilty result in data set [2] was “Stable”. Besides, the inhibition constant Ki in data set [1] is 1080 µM.

Consider `CC(=O)c1ccc(NC(=N)N)nc1`, for which the inhibition constant Ki in data set [1] is 5040 µM.

Regarding `N=C(N)Nc1ccc(Cl)cc1`, in data set [1], the Ki amounted to 127 µM.

Turning to `N=C(N)Nc1ccc(Br)cn1`, the V0 in the data set filed under Bos taurus is 3.85 10^-8M/s. Also, the Ki in data set [1] was determined as 20.5 µM.

In the case of `Cc1cccc(NC(=N)N)n1`, the Ki in data set [1] was 91.3 µM.

Take `CN(C)/C=N/c1ccc(Br)cn1`: the Ki in data set [1] is greater than 17200 µM.

As to `N=C(N)Nc1ccc(Cl)cn1`, in the data set filed under Bos taurus, the V0 was 8.26 10^-8M/s. For the same molecule, the Ki in data set [1] is 34.7 µM.

Take `N=C(N)Nc1ccc(I)cn1`: the V0 in the data set listed under Bos taurus was 4.4 10^-8M/s. In addition, the Ki in data set [1] amounted to 15.1 µM.

On to `N=C(N)Nc1ccc(C(F)(F)F)cn1`, for which the V0 in the data set filed under Bos taurus is 10.3 10^-8M/s. Besides, the inhibition constant Ki in data set [1] amounted to 218 µM.

For the molecule `Cc1ccnc(NC(=N)N)c1`, the Ki in data set [1] is 119 µM.

For `N=C(N)c1ccccc1` [BENZAMIDINE], the inhibition constant Ki in data set [3] was determined as 35 µM.

For `N=C(N)Nc1cccnc1`, the Ki in data set [1] was found to be 950 µM.

Turning to `Cc1cccnc1NC(=N)N`, the Ki in data set [1] was 14 µM.

As for `N=C(N)Nc1ccc(F)cn1`, the V0 in the data set filed under Bos taurus was 3.79 10^-8M/s. For the same molecule, the Ki in data set [1] was 144 µM.

`N=C(N)Nc1ccncn1`: the Ki in data set [1] amounted to 514 µM.

For the molecule `CON(C)C(=O)c1ccc(NC(=N)N)nc1`, the Ki in data set [1] came to 2550 µM.

The Ki is the equilibrium dissociation constant of an inhibitor or competing ligand from its target.

These data come from ChEMBL document CHEMBL4725290, “Synthesis of 2-guanidinyl pyridines and their trypsin inhibition and docking” (Bioorg Med Chem, 2020).
